# In US12428442B2, “Compounds, compositions and methods for synthesis” (WAVE LIFE SCIENCES LTD., priority 2017, dated 2025):
# Assay: Measuring pKa value of amino alcohols by titration against NaOH in MDA/KCl
# Details: MDA = Methanol-Dioxane-Acetonitrile, 1:1:1
# Method: To this clear solution was added 6 μL of con. HCl and stirred well. This solution was titrated against 1 M NaOH solution. NaOH solution was added in 2 (or 4) ml increments. During the addition of each increment of NaOH solution, pH of the solution was recorded using a pH meter until a pH of 12 was measured. The measured titration values were analyzed (graph pad software was used) to determine the first derivative of the volume of NaOH used in the titration. This first derivative value is the pKa of the amino alcohol.
row,SMILES,solubility of sample in MDA mixture
1,C[Si](C[C@H](O)[C@H]1CCCN1)(C1CCCCC1)C1CCCCC1 [WV-CA-041-D],Sample Insoluble in MDA
2,C[Si](C[C@H](O)[C@@H]1CCCCN1)(C1CCCCC1)C1CCCCC1 [WV-CA-046],Insoluble in MDA mixture
3,C[Si](C[C@@H](O)[C@@H]1CCCCN1)(C1CCCCC1)C1CCCCC1 [WV-CA-045],Insoluble in MDA mixture
4,C[Si](C[C@@H](O)[C@@H]1CCCN1)(C1CCCCC1)C1CCCCC1 [WV-CA-041-L],Sample Insoluble in MDA
